From patent publication US20060148744A1, “Use of cis-epoxyeicosantrienoic acids and inhibitors of soluble epoxide hydrolase to reduce damage from stroke” (priority 2004, published 2006)

Columns and labels:
Metabolic stability = type: in vitro ADME; settings: result in words
sEH = target: T1, sEH (Homo sapiens, UniProt P34913); assay: Inhibition of sEH; type: biochemical; settings: result in words
T1 sequence (P34913 1-555): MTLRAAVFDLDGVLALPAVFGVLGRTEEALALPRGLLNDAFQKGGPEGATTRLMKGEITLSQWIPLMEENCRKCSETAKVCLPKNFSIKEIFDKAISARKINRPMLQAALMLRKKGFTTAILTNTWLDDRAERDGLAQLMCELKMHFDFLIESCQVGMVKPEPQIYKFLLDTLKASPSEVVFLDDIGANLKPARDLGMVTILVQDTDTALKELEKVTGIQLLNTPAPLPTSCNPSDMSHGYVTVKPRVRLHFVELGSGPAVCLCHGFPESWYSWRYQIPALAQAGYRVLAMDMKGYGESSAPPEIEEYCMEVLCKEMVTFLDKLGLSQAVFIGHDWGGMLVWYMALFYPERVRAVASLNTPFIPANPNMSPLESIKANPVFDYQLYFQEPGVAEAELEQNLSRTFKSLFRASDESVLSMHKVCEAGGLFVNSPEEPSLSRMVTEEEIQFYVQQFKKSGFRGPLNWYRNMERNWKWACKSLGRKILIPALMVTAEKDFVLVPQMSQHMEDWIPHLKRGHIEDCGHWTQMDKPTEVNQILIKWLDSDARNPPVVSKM
Source text: Any of a number of standard assays for determining epoxide hydrolase activity can be used to determine inhibition of sEH. For example, suitable assays are described in Gill, et al., Anal Biochem 131, 273-282 (1983); and Borhan, et al., Analytical Biochemistry 231, 188-200 (1995)). Suitable in vitro assays are described in Zeldin et al., J Biol. Chem. 268:6402-6407 (1993). Suitable in vivo assays are described in Zeldin et al., Arch Biochem Biophys 330:87-96 (1996). […]
The enzyme also can be detected based on the binding of specific ligands to the catalytic site which either immobilize the enzyme or label it with a probe such as dansyl, fluoracein, luciferase, green fluorescent protein or other reagent. […] The enzyme also can be detected based on the generation of fluorescent products following the hydrolysis of the epoxide. […]

[1] = Systolic blood pressure in treated SPSHR; type: in vivo, rat; settings: SPSHR treated with AUDA
Source text: This difference in infarct size occurred independently of changes in systolic blood pressure (193±2 vs. 197±6 mm Hg, AUDA vs. vehicle).

[2] = rat, in vivo, po
Procedure: The sEH inhibitor, adamantyl dodecanoic acid (AUDA) was administered orally to six-week-old male stroke prone spontaneously hypertensive rats (“SPSHR”).

[3] = test system: stroke prone spontaneously hypertensive rats; assay: Cerebral ischemia by middle cerebral artery occlusion (intralumenal suture), infarct size by TTC staining; type: in vivo, rat; settings: SPSHR, six weeks oral treatment, six hours post MCA occlusion, n=6, p<0.01 vs. vehicle
Procedure: After six weeks of treatment, cerebral ischemia was induced by middle cerebral artery occlusion using the intralumenal suture occlusion technique. Rats were anesthetized with sodium pentobarbital (50 mg/kg IP) and body temperature was maintained at 37° C. using a microprocessor-controlled heating pad and a rectal temperature probe. The skin over the skull was retracted and the bone was thinned using a low speed drill. A laser Doppler flow probe (Perimed) was glued to the skull 2 mm posterior and 6 mm lateral to the bregma to allow for confirmation of middle cerebral artery (“MCA”) occlusion. The MCA was then occluded using the thread occlusion model as described by Zea Longa et al. “Reversible middle cerebral artery occlusion without craniotomy in rats”, Stroke 20:84-91 (1989). The common carotid artery was exposed by a midline incision and the pterygopalatine artery was ligated and the branches of the external carotid artery were cauterized. A 3-0 monofilament thread with a rounded tip was introduced into the external carotid artery in a retrograde fashion. […] Digital images of the brain slices were produced and the infarct volume was analyzed using a computerized image analysis system (NIH image, version 1.55). The percent of the hemisphere infarcted was measured using the Swanson equation to account for cerebral edema. […]

Plasma levels of AUDA at the end of the treatment period [2] [ng/mL] | urinary AUDA excretion rate [2] [ng/day] | Compound | metabolic stability (Metabolic stability) | activity as an inhibitor of sEH (sEH) | systolic blood pressure [1] [mm Hg] | % hemisphere infarcted [3] [% hemisphere infarcted]
– | – | CCCCCCCCCCCCNC(=O)NC12CC3CC(CC(C3)C1)C2 [ADU, N-Adamantyl-N′-dodecyl urea] | metabolically stable | particularly high activity on sEH | – | –
5.03 ± 0.32 | 111.6 ± 24.4 | adamantyl dodecanoic acid [AUDA] | – | – | 193±2 | 35.9±3.83
